Series [1] can be described thus: Potentiometric titration for pK and pI. To be noted: 12 µmol peptide, room temperature. Type of series: physicochemical. The protocol:
Potentiometric titrations were performed to determine acid–base constants at room temperature using a potentiometric cell with a combined glass electrode and OMINS titration system (Metrohm). An OMNIS Digital Burette with an accuracy of ±0.01 mL was used to precisely add the titrant portions to the titrated aliquot (12 µmol) of the stock solution of the peptide compounds. The potentiometric titration results were processed mathematically to construct the titration curves and calculate the acid–base constants according to […] [16]. Isoelectric points correspond to pH points where the analyte and titrant interact in equimolar amounts (pH at the equivalence point).

Series [2] relates to psychomotor seizures (6-Hz test) in mice. Description: 6-Hz test. Type of series: in vivo. To be noted: i.c.v.; for No. of Animals Protected/No. of Animals Tested: 10 min after infusion. As to the method:
(§1) The spinorphin peptide analogues (S, Dm-S, Dm-S5, and Dm-S6 or PhS, PhS5, and PhS6) were administered intracerebroventricularly (i.c.v.) (10 μL/ventricle) at doses of 0.6, 1.2, and 2.4 μg, respectively, using a 28-gauge stainless-steel needle attached to a 50-μL Hamilton® syringe as previously described. The matched group (control) was treated with a vehicle. The seizure test was performed 10 min after the i.c.v. infusion.
6-Hz test. Psychomotor seizures were induced by corneal electrodes (constant current shock generator, 32 mA, 6 Hz, 3 s) as previously described. The return to a normal position, 10 s after stimulation, was used as a criterion for protection against psychomotor seizures.

The test system of series [3] is generalized seizures (MES test) in mice. The series is described as follows: Maximal electroshock (MES) test. Type of series: in vivo. To be noted: i.c.v. The protocol: as §1
The generalized seizures were induced through a stronger stimulus of 50 mA, 60 Hz, 0.2 s, applied via the same corneal electrodes, in each mouse tested. The suppression of tonic hind limb extension, replaced by a clonic seizure, was accepted as a valid criterion for the anticonvulsant potency of the drug.
Background: Protection in the maximal electroshock model is a classic sign of anticonvulsant action.

Series [4] relates to ivPTZ-induced myoclonic, clonic and tonic seizures in mice. Description: Intravenous pentylenetetrazole seizure (ivPTZ) test. In kind it is in vivo. As to conditions: i.c.v., doses of 0.62 µg and 1.25 µg, vs. vehicle-infused control (p < 0.05; p < 0.01). As to the method: as §1
Intravenous Pentylenetetrazole Seizure (ivPTZ) Test The convulsant pentylenetetrazole (PTZ) (1%), dissolved in saline, was infused (0.005 mL/s) into a tail vein as previously performed. The activity to raise the threshold of ivPTZ-induced myoclonic, clonic, and tonic seizures and concentrations, quantity of infusion (mL), and mouse body weight were recorded.

Another series has as its system Escherichia coli. Description: Antibacterial disc diffusion. Type of series: cell-based. To be noted: 20 µL of 50 mg/mL on 6 mm disc, 24 h, 37 °C. As to the method:
Antibacterial activity is carried out with reference to the slightly modified method of Murray et al.. The bacteria used were Staphylococcus aureus, Escherichia coli, and Bacillus cereus. To test the antibacterial activity of 6 peptides, it is carried out as follows: taking 100 μL of spectrum bacteria ([…] bacteria) spread on the nutrient agar medium (NA). Furthermore, a paper disc (6 mm in diameter) was placed and then 20 μL of extract with a concentration of 50 mg/mL was dripped onto it. As a positive control, we used […] of chloramphenicol on the paper disc. DMSO 10% is used as a negative control according to peptide solvents. The treatment was repeated three times and then incubated for 24 h at a temperature of 37 °C. After that, an inhibitory power test measurement was carried out by measuring the diameter of the clear zone formed.

The mark [5] stands for this setting: isoelectric point = pH at equivalence point, potentiometric titration.
[6] abbreviates: potentiometric titration with NaOH, aqueous.

Marks after values point to notes of the source that are not given here.

Consider “H-LVVYPWT-NH2 [S, H-Leu-Val-Val-Tyr-Pro-Trp-Thr-NH2]”, for which, in series [1] (setting [5]), the pI1 is given as 4.91. In addition, the pI2 in series [1] (setting [5]) worked out at 8.31. This substance also returned a pKa1 in series [1] (setting [6]) of 3.15. Also, the pKa2 in series [1] (setting [6]) was found to be 6.78. Further, the “% Protection” value was found to be 50% in series [2] (dose 0.62 µg/10 µL); 50% in series [2] (dose 1.25 µg/10 µL); 67% * in series [2] (dose 2.5 µg/10 µL); 50% in series [3] (MES test, dose 2.5 µg/10 µL). The “No. of Animals Protected/No. of Animals Tested” value in series [2] (dose 0.62 µg/10 µL) is on record as 3/6; in series [2] (dose 1.25 µg/10 µL), 3/6; in series [2] (dose 2.5 µg/10 µL), 4/6; in series [3] (MES test, dose 2.5 µg/10 µL, 10 min after infusion), 3/6. Further, the “% Mortality” value in series [3] (MES test, dose 0.62 µg/10 µL) came out at 0%; in series [3] (MES test, dose 1.25 µg/10 µL) it was 30%; in series [3] (MES test, dose 2.5 µg/10 µL), 50%. Also, the “Activity in the MES test (in words)” value in series [3] (text summary of Tables 4 and 5) was “inactive”. Also, in series [4], the “Activity against myoclonic twitching, clonic seizures and forelimb tonic seizures (ivPTZ)” value is “anticonvulsant activity”. Moreover, the “Antibacterial activity against E. coli (inhibitory zone, in words)” value in the series on Escherichia coli is recorded as “outperformed peptide analogues”.

The values above are taken from publication PMC11206695, “Chemical Behavior and Bioactive Properties of Spinorphin Conjugated to 5,5′-Dimethyl- and 5,5′-Diphenylhydantoin Analogs” (Pharmaceuticals, 2024).
